Test results as given in ChEMBL document CHEMBL5380794, “Discovery of a Potent and Selective STAT5 PROTAC Degrader with Strong Antitumor Activity In Vivo in Acute Myeloid Leukemia” (J Med Chem, 2023).

What was measured:
[1] = biological target: T1, Signal transducer and activator of transcription 5A (Homo sapiens, UniProt P42229); test: Binding affinity to N-terminal 6his-tagged human STAT5A (136 to 705 residues) expressed in Escherichia coli BL21-DE3 rosetta cells assessed as inhibition constant by FP assay
T1 sequence (P42229 whole entry): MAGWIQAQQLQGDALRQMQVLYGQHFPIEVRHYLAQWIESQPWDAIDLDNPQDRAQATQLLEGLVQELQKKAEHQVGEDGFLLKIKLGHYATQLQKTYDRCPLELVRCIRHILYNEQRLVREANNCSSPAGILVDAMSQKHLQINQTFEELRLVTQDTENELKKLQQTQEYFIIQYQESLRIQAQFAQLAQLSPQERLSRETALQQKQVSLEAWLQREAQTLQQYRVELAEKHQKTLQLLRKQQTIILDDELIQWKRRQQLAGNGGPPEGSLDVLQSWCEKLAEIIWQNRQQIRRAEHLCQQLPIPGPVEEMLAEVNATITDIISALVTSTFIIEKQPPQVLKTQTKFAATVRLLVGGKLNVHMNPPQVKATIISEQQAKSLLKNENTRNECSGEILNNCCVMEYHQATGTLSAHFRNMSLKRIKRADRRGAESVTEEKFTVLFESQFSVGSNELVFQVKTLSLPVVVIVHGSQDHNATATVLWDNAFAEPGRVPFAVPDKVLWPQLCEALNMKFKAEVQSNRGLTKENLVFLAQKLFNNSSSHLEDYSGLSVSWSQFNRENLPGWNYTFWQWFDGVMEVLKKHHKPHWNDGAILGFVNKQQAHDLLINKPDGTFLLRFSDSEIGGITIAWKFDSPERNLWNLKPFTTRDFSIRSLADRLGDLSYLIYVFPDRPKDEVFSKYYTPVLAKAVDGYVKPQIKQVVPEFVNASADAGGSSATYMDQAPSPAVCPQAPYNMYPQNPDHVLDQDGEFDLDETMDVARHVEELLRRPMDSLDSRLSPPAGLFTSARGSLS

[2] = biological target: T2, Signal transducer and activator of transcription 5B (Homo sapiens, UniProt P51692); test: Binding affinity to STAT5B (unknown origin) assessed as inhibition constant by FP assay
T2 sequence (P51692 whole entry): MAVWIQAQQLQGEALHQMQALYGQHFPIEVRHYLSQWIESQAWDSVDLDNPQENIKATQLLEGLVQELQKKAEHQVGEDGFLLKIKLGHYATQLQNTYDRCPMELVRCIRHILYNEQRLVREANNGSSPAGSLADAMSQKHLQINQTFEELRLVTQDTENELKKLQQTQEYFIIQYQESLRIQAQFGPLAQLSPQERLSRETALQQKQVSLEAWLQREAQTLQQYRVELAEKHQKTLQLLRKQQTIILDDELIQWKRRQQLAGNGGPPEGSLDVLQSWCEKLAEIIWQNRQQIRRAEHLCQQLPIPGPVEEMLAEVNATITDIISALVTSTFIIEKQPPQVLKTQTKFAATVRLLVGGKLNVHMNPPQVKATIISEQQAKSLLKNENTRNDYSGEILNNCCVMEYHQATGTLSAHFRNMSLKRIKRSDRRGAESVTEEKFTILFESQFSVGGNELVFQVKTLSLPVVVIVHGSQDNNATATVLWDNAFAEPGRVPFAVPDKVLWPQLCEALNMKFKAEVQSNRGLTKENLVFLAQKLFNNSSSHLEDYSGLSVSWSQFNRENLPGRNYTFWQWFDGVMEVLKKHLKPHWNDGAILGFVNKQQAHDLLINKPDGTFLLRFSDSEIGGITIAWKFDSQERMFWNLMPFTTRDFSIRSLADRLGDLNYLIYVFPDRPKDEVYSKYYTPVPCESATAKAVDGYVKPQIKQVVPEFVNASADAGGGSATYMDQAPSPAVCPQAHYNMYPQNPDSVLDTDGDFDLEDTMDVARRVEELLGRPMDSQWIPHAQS

[3] = biological target: T3, Signal transducer and activator of transcription 6 (Homo sapiens, UniProt P42226); test: Binding affinity to STAT6 SH2 domain (unknown origin) assessed as inhibition constant by FP assay
T3 sequence (P42226 whole entry): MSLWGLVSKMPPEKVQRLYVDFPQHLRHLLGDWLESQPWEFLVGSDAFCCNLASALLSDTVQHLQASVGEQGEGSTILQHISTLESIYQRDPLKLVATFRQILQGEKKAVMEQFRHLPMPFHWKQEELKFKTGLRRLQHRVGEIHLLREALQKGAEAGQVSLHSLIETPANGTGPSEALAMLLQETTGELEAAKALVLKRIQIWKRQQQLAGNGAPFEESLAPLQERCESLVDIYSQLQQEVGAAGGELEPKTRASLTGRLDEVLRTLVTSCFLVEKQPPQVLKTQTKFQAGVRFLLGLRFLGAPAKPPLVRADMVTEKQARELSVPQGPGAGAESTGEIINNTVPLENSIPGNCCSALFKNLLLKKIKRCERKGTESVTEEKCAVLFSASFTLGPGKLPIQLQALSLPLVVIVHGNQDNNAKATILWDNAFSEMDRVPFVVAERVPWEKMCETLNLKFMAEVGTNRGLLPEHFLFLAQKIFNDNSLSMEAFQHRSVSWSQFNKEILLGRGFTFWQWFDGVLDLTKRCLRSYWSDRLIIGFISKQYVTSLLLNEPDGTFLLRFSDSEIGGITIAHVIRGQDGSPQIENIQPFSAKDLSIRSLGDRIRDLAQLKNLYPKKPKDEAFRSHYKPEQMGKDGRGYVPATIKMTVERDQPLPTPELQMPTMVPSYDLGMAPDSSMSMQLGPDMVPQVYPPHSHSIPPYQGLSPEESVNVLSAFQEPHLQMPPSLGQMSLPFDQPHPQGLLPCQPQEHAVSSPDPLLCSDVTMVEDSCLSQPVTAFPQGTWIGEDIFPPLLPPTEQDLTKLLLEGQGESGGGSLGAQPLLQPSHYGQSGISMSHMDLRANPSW

[4] = biological target: T3, Signal transducer and activator of transcription 6; test: Induction of STAT6 degradation in human SKNO-1 cells measured for 18 hrs by Western blot analysis; assay type: cell-based
[5] = biological target: T1, Signal transducer and activator of transcription 5A; test: Induction of STAT5 degradation in human SKNO-1 cells measured for 18 hrs by Western blot analysis; assay type: cell-based

Structure (SMILES) | Ki [2] [nM] | DC50 [5] [nM] | also measured
C/C(=C\C(=O)N[C@H](C(=O)N1CCC[C@H]1C(=O)N1CCCc2ccccc21)C(C)(C)C)c1ccc(C(F)(F)P(=O)(O)O)cc1 | > 10000 | – | –
CC(C)(C)[C@H](NC(=O)c1cc2cc(C(F)(F)P(=O)(O)O)ccc2s1)C(=O)N1CCC[C@H]1C(=O)N(CCC(=O)NCCC#Cc1cccc2c1CN(C1CCC(=O)NC1=O)C2=O)c1ccc(Br)cc1 (some centres not stated) | – | > 5000 | DC50 ([4]; read-out: DC50): > 5000 nM
CN(C)C(=O)CCN(C(=O)[C@@H]1CCCN1C(=O)[C@@H](NC(=O)c1cc2cc(C(F)(F)P(=O)(O)O)ccc2s1)C(C)(C)C)c1ccccc1 | 6800 | – | –
CC(C)(C)[C@H](NC(=O)c1cc2cc(C(F)(F)P(=O)(O)O)ccc2s1)C(=O)N1CCC[C@H]1C(=O)N(CCC(=O)NCCCC#Cc1cccc2c1CN(C1CCC(=O)NC1=O)C2=O)c1ccc2scnc2c1 (some centres not stated) | 400 | 450 | Ki [1]: 1000 nM
CC(C)(C)[C@H](NC(=O)c1cc2cc(C(F)(F)P(=O)(O)O)ccc2s1)C(=O)N1CCC[C@H]1C(=O)N1CCC2(CCC2)C1 | > 10000 | – | –
CN(C)C(=O)CCN(C(=O)[C@@H]1CCCN1C(=O)[C@@H](NC(=O)c1cc2cc(C(F)(F)P(=O)(O)O)ccc2s1)C(C)(C)C)c1cccc(Br)c1 | 7000 | – | –
CC(C)(C)[C@H](NC(=O)c1cc2cc(C(F)(F)P(=O)(O)O)ccc2s1)C(=O)N1CCC[C@H]1C(=O)N(CCC(=O)N1CCC(Nc2cccc3c2CN(C2CCC(=O)NC2=O)C3=O)CC1)c1ccc(Br)cc1 (some centres not stated) | – | > 5000 | DC50 [4]: Not Active
CC(C)(C)[C@H](NC(=O)c1cc2cc(C(F)(F)P(=O)(O)O)ccc2s1)C(=O)N1CCC[C@H]1C(=O)N(CCC(=O)NCCCC#Cc1cccc2c1CN(C1CCC(=O)NC1=O)C2=O)c1ccc(S(C)(=O)=O)cc1 (some centres not stated) | – | > 5000 | –
CC(C)(C)[C@H](NC(=O)c1cc2cc(C(F)(F)P(=O)(O)O)ccc2s1)C(=O)N1CCC[C@H]1C(=O)N(CCC(=O)NCCCCCC#Cc1cccc2c1CN(C1CCC(=O)NC1=O)C2=O)c1ccc(Br)cc1 (some centres not stated) | – | 1100 | DC50 ([4]; read-out: DC50): > 5000 nM
CN(C)C(=O)CCN(C(=O)[C@@H]1CCCN1C(=O)[C@@H](NC(=O)c1cc2cc(C(F)(F)P(=O)(O)O)ccc2s1)C(C)(C)C)c1ccc(Br)cc1 | 2100 | – | –
CC(C)(C)[C@H](NC(=O)c1cc2cc(C(F)(F)P(=O)(O)O)ccc2s1)C(=O)N1CCC[C@H]1C(=O)N(CCC(=O)N1CC(CC#Cc2cccc3c2CN(C2CCC(=O)NC2=O)C3=O)C1)c1ccc(Br)cc1 (some centres not stated) | – | > 5000 | DC50 [4]: Not Active
CC(C)(C)[C@H](NC(=O)c1cc2cc(C(F)(F)P(=O)(O)O)ccc2s1)C(=O)N1CCC[C@H]1C(=O)N(CCC(=O)NCCCC#Cc1cccc2c1CN(C1CCC(=O)NC1=O)C2=O)c1ccc(C#N)cc1 (some centres not stated) | – | > 5000 | –
CN(C(=O)[C@@H]1CCCN1C(=O)[C@@H](NC(=O)c1cc2cc(C(F)(F)P(=O)(O)O)ccc2s1)C(C)(C)C)c1ccccc1 | 6200 | – | –
CC(C)(C)[C@H](NC(=O)c1cc2cc(C(F)(F)P(=O)(O)O)ccc2s1)C(=O)N1CCC[C@H]1C(=O)N(CCC(=O)N1CCC(C#Cc2cccc3c2CN(C2CCC(=O)NC2=O)C3=O)CC1)c1ccc(Br)cc1 (some centres not stated) | – | > 5000 | DC50 [4]: Not Active
CC(C)(C)[C@H](NC(=O)c1cc2cc(C(F)(F)P(=O)(O)O)ccc2s1)C(=O)N1CCC[C@H]1C(=O)Nc1ccccc1 | > 10000 | – | –
CN(C)C(=O)CCN(C(=O)[C@@H]1CCCN1C(=O)[C@@H](NC(=O)c1cc2cc(C(F)(F)P(=O)(O)O)ccc2s1)C(C)(C)C)c1ccc2scnc2c1 | 1300 | – | –
Cc1ccc(N(CCC(=O)NCCCC#Cc2cccc3c2CN(C2CCC(=O)NC2=O)C3=O)C(=O)[C@@H]2CCCN2C(=O)[C@@H](NC(=O)c2cc3cc(C(F)(F)P(=O)(O)O)ccc3s2)C(C)(C)C)cc1 (some centres not stated) | – | 310 | –

Further lines, with some results ahead:

Ki [2] [nM] | DC50 [5] [nM] | Structure (SMILES) | also measured
1700 | – | CN(C)C(=O)CCN(C(=O)[C@@H]1CCCN1C(=O)[C@H](Cc1ccc(F)cc1)NC(=O)c1cc2cc(C(F)(F)P(=O)(O)O)ccc2s1)c1ccc(-c2nccs2)cc1 | Ki [1]: 1000 nM; Ki [3]: 3500 nM
– | 4200 | CC(C)(C)[C@H](NC(=O)c1cc2cc(C(F)(F)P(=O)(O)O)ccc2s1)C(=O)N1CCC[C@H]1C(=O)N(CCC(=O)N1CC(CCC#Cc2cccc3c2CN(C2CCC(=O)NC2=O)C3=O)C1)c1ccc(Br)cc1 (some centres not stated) | DC50 [4]: Not Active
6200 | – | CC(C)(C)[C@H](NC(=O)c1cc2cc(C(F)(F)P(=O)(O)O)ccc2s1)C(=O)N1CCC[C@H]1C(=O)N1CCCc2ccccc21 | –
– | 1400 | CC(C)(C)[C@H](NC(=O)c1cc2cc(C(F)(F)P(=O)(O)O)ccc2s1)C(=O)N1CCC[C@H]1C(=O)N(CCC(=O)NCCCCCCC#Cc1cccc2c1CN(C1CCC(=O)NC1=O)C2=O)c1ccc(Br)cc1 (some centres not stated) | DC50 ([4]; read-out: DC50): > 5000 nM
2000 | – | CN(C)C(=O)CCN(C(=O)[C@@H]1CCCN1C(=O)[C@@H](NC(=O)c1cc2cc(C(F)(F)P(=O)(O)O)ccc2s1)C(C)(C)C)c1ccc2occc2c1 | –
800 | 180 | CC(C)(C)[C@H](NC(=O)c1cc2cc(C(F)(F)P(=O)(O)O)ccc2s1)C(=O)N1CCC[C@H]1C(=O)N(CCC(=O)NCCCC#Cc1cccc2c1CN(C1CCC(=O)NC1=O)C2=O)c1ccc2sccc2c1 (some centres not stated) | Ki [1]: 1200 nM
4200 | – | CN(C)C(=O)CCN(C(=O)[C@@H]1CCCN1C(=O)[C@@H](NC(=O)c1cc2cc(C(F)(F)P(=O)(O)O)ccc2s1)C(C)(C)C)c1ccc(Cl)cc1 | –
– | 130 | CN(CCCC#Cc1cccc2c1CN(C1CCC(=O)NC1=O)C2=O)C(=O)CCN(C(=O)[C@@H]1CCCN1C(=O)[C@@H](NC(=O)c1cc2cc(C(F)(F)P(=O)(O)O)ccc2s1)C(C)(C)C)c1ccc2ccccc2c1 (some centres not stated) | –
– | 500 | CC(C)(C)[C@H](NC(=O)c1cc2cc(C(F)(F)P(=O)(O)O)ccc2s1)C(=O)N1CCC[C@H]1C(=O)N(CCC(=O)NCCCCC#Cc1cccc2c1CN(C1CCC(=O)NC1=O)C2=O)c1ccc(Br)cc1 (some centres not stated) | DC50 ([4]; read-out: DC50): > 5000 nM
– | 200 | CN(CCCC#Cc1cccc2c1CN(C1CCC(=O)NC1=O)C2=O)C(=O)CCN(C(=O)[C@@H]1CCCN1C(=O)[C@@H](NC(=O)c1cc2cc(C(F)(F)P(=O)(O)O)ccc2s1)C(C)(C)C)c1ccc2occc2c1 (some centres not stated) | –
> 10000 | – | CC(C)(C)[C@H](NC(=O)c1cc2cc(C(F)(F)P(=O)(O)O)ccc2s1)C(=O)N1CCC[C@H]1C(=O)N1CCCOCC1 | –
